Data: patent US11478442B2, “Pharmaceutical compositions comprising DGLA and use of same” (DS Biopharma Limited, priority 2014, dated 2022)
Read-outs that look alike come from different tables or passages of the source. Each block holds one molecule with its values, some of them ahead of it.

Tests used:
[1] = in vivo
[2] = system: spontaneous hypertensive rats; assay: Anti-hypertension efficacy of DGLA and aspirin in spontaneous hypertensive rats with phenylephrine challenge; format: in vivo, rat; conditions: for effect on mean systemic arterial pressure (in words): aspirin-fed rats
Protocol: An in vivo investigation of anti-hypertension efficacy following co-administration of DGLA and aspirin in spontaneous hypertensive rats was conducted. This experiment investigated the efficacy of DGLA when co-administered chronically with aspirin to reduce the hypertensive response induced acutely by phenylephrine in spontaneous hypertensive rats. Spontaneously hypertensive adult male rats (250-300 g), bred by Charles River Laboratories, were used for this assay. The animals were identified upon arrival as per CCPA guidelines. The animals were pair-housed by group (low dose+ Aspirin, high dose+ Aspirin or Aspirin alone) for the duration of the oral gavage prior to surgery. All animal care and vivarium maintenance was recorded, with documents kept at the test facility.
The concentrations of DGLA to be tested (50 and 500 mg/kg) as well as the concentration of aspirin (10 mg/kg) were selected by the Sponsor based on information available at the time of design of this study. They were selected to cover a range of concentrations useful for the identification of the mechanism of action of the test article.
All solution preparations were documented on a Solution Contents Form, defining labelling information and all relevant information on reagents: batch number, storage conditions, contents, and preparation/expiry dates.
The test article was formulated using olive oil as the vehicle. This stock solution was then administered by oral gavage once per day for seven consecutive days. A low and a high dose (50 mg/kg and 500 mg/kg) were tested.
A 5 mg/ml stock solution of Aspirin was prepared by dissolving the appropriate amount of aspirin in 100% DMSO which was then diluted in water. The concentration of DMSO was less than 1%. The appropriate volume was administered by oral gavage to each animal once per day for seven consecutive days. The stock solution was stored at room temperature and was considered stable for the duration of the gavage.
The appropriate volume was administered to each animal by an intravenous injection at the end of the experiment on the surgery day. The stock solution was stored at 4° C. and was considered stable for the duration of the experiment.
Male spontaneous hypertensive rats weighing approximately 300 g arrived at the facility at least two days before beginning the oral gavage. Animals were assigned to one of three groups (low dose+ aspirin, high dose+ aspirin, and aspirin), and were pair-housed during the acclimation period. Each group (n=4) received the appropriate compound by oral gavage using a 16G feeding needle. The stock solution was administered once per day for seven consecutive days. On the seventh day of administration, the animals underwent surgery and hypertensive monitoring.
Rats were anesthetized with a 2.5-3.0% isoflurane-O2 mixture in an induction box. When the animals were removed from the induction box, they were connected onto a nose cone to maintain anesthesia during the tracheotomy. The animals were tracheotomised with an endotracheal tube (7 cm length from connector to the tip made with a PE205 tube from BD and a 16G needle) to facilitate spontaneous breathing, stabilize hemodynamics, and to keep the rat under anesthesia with an isoflurane-O2 mixture. Two catheters were inserted: one in the right femoral artery for systemic arterial pressure (SAP) measurement, and one in the right femoral vein for delivery of the hypertensor and positive control. ECG signals were acquired with ECG contacts placed in a Lead-1 configuration on the anaesthetized animal, and a pulse oxymeter was attached to the animal's hind paw to enable continuous monitoring of the general condition of the rat during the surgical. Following baseline measurements, three doses of phenylephrine (3, 10 and 20 μg/kg) were delivered by an IV bolus injection, leaving 5 minutes between doses. […] After the positive control, 10 μg/kg of phenylephrine was administered again.

[3] = Phase one study, multiple dose (28 days): plasma pharmacokinetics of total DGLA incl. steady state; format: in vivo, human; conditions: for half-life: 2000 mg, 2000 mg dose cohort, read-out: Median total DGLA elimination t½ (converted); for Peak Trough Fluctuation (PTF), mean (Table 24, total DGLA): steady-state, Day 28 (0-24 hours)
Protocol: (§1) A single-center, double-blind, randomized, placebo-controlled, two part Phase one study was performed in healthy male and female subjects aged 18 to 45 years inclusive. The primary objective of this study was to assess the safety and plasma pharmacokinetics (PK) of orally administered single doses and orally administered multiple doses of DS107G capsules (once daily for 28 days) in healthy subjects.
(§2) Multiple dose part two of the study comprised two cohorts (Cohorts five and six) of eight subjects each, who were administered multiple doses of study drug in the fasted state for 28 days. Subjects in Cohorts five and six received DS107G 2000 or 4000 mg, respectively, or matching placebo once daily for 28 days. Cohort six was started after Cohort five safety data were evaluated by the SMC. No interim analysis was planned.
(§3) Safety assessments were monitored throughout the study.
(§4) In Part two of the study (Cohorts five and six), subjects were administered study drug (500-mg DS107G capsules or matching placebo capsules) once daily in the fasted state for 28 days. Subjects in Cohort five received study drug first and, if they tolerated the 2000-mg daily dose for the first 14 days, subjects in Cohort six were started on the 4000-mg daily dose for 28 days.
(§5) PK parameter was computed after correcting the dosed DGLA concentrations with baseline DGLA concentrations.

[4] = Phase one study, multiple dose (28 days): plasma pharmacokinetics of free DGLA incl. steady state; format: in vivo, human
Protocol: as §1, §2, §3, §4, §5

[5] = Phase one study, multiple dose: free and total DGLA in skin blister fluid; format: in vivo, human
Description: The PK of DGLA in human skin following multiple doses of DS107G capsule given once daily for 28 days to healthy subjects.

[6] = Phase one study, food effect: single 1000 mg dose fasted vs fed, plasma pharmacokinetics of free and total DGLA; format: in vivo, human; conditions: for Tmax: human, plasma, oral, 1000 mg, read-out: total DGLA tmax, median
Protocol: The effect of food on the PK of an orally administered single dose of DS107G capsule in healthy subjects.
Subjects were randomly assigned in a 3:1 ratio of DG107G to placebo by block randomization. Single dose part one of the study comprised three cohorts of eight subjects each, with the addition of Cohort four based on evaluation of the safety data of Cohort three by the Safety Monitoring Committee (SMC). A single oral dose of DS107G or matching placebo was administered to fasted subjects in Cohorts one to three (500, 1000, and 2000 mg, respectively) in parallel; subjects in Cohort four were administered a dose of 4000 mg following completion of Cohort three. Subjects in Cohort two received 1000 mg or matching placebo in the fed state at 14 days after the first dose.
Food effect was evaluated in Cohort two at least 14 days after the first dose at which time a second single dose was administered. Subjects were administered a 1000-mg dose of study drug with 240 mL of water after a 10-hour fasting period and 30 minutes after starting consumption of a meal. Subjects then refrained from food intake for at least 4 hours after dosing. Food consumption was standardized for at least 12 hours after dosing using a standardized high-fat meal (800 to 1000 kcal with 500 to 600 kcal from fat and 250 kcal from carbohydrates). A typical standard test meal consisted of two eggs fried in butter, two strips of bacon, two slices of toast with butter, 120 mL of hash brown potatoes, and 240 mL of whole milk.
Subjects in Cohort two undergoing evaluation of the food effect on oral 1000 mg DGLA capsules were restricted from food consumption for at least 4 hours after dosing. Food consumption was standardized for at least 12 hours post dose using a standardized high-fat meal.

[7] = concentrations from Days 1, 8, 14 and 28
[8] = DGLA 50 mg/kg gavage 7 days, before intravenous phenylephrine

plasma free 15-HETrE concentration [1]: < 100 ng/m L
Structure (SMILES): CCCCC[C@H](O)/C=C/C=C\C/C=C\CCCCCCC(=O)O [Batch 15-HETrE, 15-Hydroxyeicosatrienoic acid]

Structure (SMILES): COc1ccccc1OCCNCC(O)COc1cccc2[nH]c3ccccc3c12 (stereo not shown) [Carvedilol, reference compound]
effect on mean systemic arterial pressure (in words) ([2]; carvedilol 0.1 mg/kg iv after phenylephrine): significant decrease | effect on blood pressure (in words) ([2]; carvedilol 0.1 mg/kg iv, DGLA + aspirin-fed animals): significant decrease in blood pressure

Structure (SMILES): CC(=O)Oc1ccccc1C(=O)O [Aspirin, reference compound]
Mean Arterial Pressure, Average ([2]; Aspirin 10 mg/kg/day gavage 7 days, Baseline): 136.8 mm Hg

half-life ([3]; both sexes, human, plasma, oral, Day 1, assessed over 24 hours): 34.4 h | half-life ([3]; both sexes, human, plasma, oral, Day 28, assessed over 24 hours): 44 h | half-life ([3]; both sexes, human, plasma, oral, Day 28, evaluated over 0 to 168 hours): 62.6 h | Tmax ([3]; both sexes, human, plasma, oral, with multiple doses, both dose cohorts, read-out: total DGLA Median T (tmax)): 8 to 10 h | Peak Trough Fluctuation (PTF), mean (Table 24, total DGLA) ([3]; first of both dose cohorts (2000 mg)): 62.5% | Peak Trough Fluctuation (PTF), mean (Table 24, total DGLA) ([3]; second of both dose cohorts (4000 mg)): 44.9% | free DGLA mean accumulation ratio (AR) for AUC ([4]; 2000 mg daily): ~3.3 | free DGLA mean accumulation ratio (AR) for Cmax ([4]; 2000 mg daily): ~2.8 | free DGLA mean accumulation ratio (AR) for AUC ([4]; 4000 mg daily): ~1.6 | free DGLA mean accumulation ratio (AR) for Cmax ([4]; 4000 mg daily): ~1.4 | day by which plasma concentrations reached steady-state ([4]; 2000 and 4000 mg daily, free and total DGLA): ~14 days | time after dosing at which mean concentrations of free DGLA peaked ([4]; Days 1 and 28, 2000 and 4000 mg daily): about 4 hours | Mean total DGLA concentrations in skin blister fluid, Day 28 vs Day 1 ([5]; 2000 mg daily): about 2.5 fold | Mean total DGLA concentrations in skin blister fluid, Day 28 vs Day 1 ([5]; 4000 mg daily): ~3 fold | change of mean free DGLA concentrations in skin blister fluid with a doubling in dose (in words) [5, 7]: approximately doubled | increase of mean total DGLA concentrations in skin blister fluid with a doubling in dose [5, 7]: about 1.4 fold | free DGLA Cmax occurred sooner (median) under fasted than fed conditions [6]: 1 h | Tmax ([6]; fasted): 8 h | Tmax ([6]; fed): 15 h
Structure (SMILES): CCCCC/C=C\C/C=C\C/C=C\CCCCCCC(=O)O [DGLA, Dihomo gamma linolenic acid]
Diastol arterial pressure [2, 8]: 75 mm Hg | Systol arterial pressure [2, 8]: 120 mm Hg | Diastol arterial pressure ([2]; DGLA 500 mg/kg gavage 7 days, before intravenous phenylephrine): 80 mm Hg | effect on arterial pressure in spontaneously hypertensive rats (in words) ([2]; DGLA alone, 50 or 500 mg/kg gavage 7 days): successfully decreases the arterial pressure

Structure (SMILES): CNC[C@H](O)c1cccc(O)c1 [phenylephrine, reference compound]
effect on mean systemic arterial pressure (in words) ([2]; phenylephrine 3, 10, 20 μg/kg iv): increased mean systemic arterial pressure with increasing doses
